Data from PMC3021320 (FEBS letters, 2010).

Molecular target: T1, Janus kinase 3 (JAK3) (Homo sapiens, UniProt P52333)
T1 sequence (P52333 1-1124): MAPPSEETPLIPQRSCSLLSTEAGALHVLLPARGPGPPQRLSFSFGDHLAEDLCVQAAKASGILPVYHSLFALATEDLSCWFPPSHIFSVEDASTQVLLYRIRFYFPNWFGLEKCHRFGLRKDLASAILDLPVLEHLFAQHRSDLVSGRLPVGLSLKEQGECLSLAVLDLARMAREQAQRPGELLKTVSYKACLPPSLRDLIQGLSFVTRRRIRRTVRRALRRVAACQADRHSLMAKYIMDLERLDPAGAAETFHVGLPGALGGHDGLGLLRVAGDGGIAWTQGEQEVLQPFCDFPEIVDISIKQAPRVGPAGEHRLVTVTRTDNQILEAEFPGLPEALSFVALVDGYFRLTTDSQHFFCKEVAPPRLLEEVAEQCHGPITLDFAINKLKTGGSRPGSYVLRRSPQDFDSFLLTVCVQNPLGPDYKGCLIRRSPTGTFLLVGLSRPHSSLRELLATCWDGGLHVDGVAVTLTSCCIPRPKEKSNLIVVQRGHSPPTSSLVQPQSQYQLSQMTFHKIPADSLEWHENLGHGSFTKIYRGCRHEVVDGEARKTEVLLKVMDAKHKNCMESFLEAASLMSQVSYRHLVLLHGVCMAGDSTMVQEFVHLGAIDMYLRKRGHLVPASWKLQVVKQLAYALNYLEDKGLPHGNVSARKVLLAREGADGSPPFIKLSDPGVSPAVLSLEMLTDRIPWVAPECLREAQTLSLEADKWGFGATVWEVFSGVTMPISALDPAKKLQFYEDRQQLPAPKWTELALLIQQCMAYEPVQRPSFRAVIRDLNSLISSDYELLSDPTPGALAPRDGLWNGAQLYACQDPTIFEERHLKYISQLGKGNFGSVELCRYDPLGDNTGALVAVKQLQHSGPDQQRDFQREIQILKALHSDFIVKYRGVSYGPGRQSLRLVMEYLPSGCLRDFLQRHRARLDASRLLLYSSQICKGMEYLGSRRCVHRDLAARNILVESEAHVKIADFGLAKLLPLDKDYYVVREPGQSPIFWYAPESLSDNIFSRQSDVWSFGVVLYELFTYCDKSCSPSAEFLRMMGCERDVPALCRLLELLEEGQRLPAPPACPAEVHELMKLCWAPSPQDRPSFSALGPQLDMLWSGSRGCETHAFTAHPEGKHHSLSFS
Experiment: kinase assay
Type: cell-based

With O=c1cc(-c2ccc(O)cc2)oc2cc(O)cc(O)c12 [apigenin] the IC50 was 1.3 nM.
